Source: US20260325533A1, “CDK INHIBITOR COMPOUNDS” (ALEKSIA THERAPEUTICS, INC., priority 2023, published 2026)
Like-named read-outs stand apart in the source and are kept apart here. Each block holds one compound with its values, some of them ahead of it.

What was measured:
Assay type in all cases: biochemical
CDK2/CCNE1 = CDK2/CCNE1 (Homo sapiens, UniProt P24941); assay: CDK2 homogeneous time-resolved fluorescence (HTRF) kinase assay
How it was run: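 TR-FRET read-out (665 nm, or 665/615 ratio) of Eu-antibody detection of phospho-4E-BP1 (Thr37/46) ULight peptide. Enzyme 3 nM, ATP 1 mM, peptide 50 nM, 1% DMSO; 60 min reaction at 23 °C after 20 min compound preincubation. IC50 from 11-point half-log titrations, top typically 10 μM.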

CDK1/CCNB1 = CDK1/CCNB1 (Homo sapiens, UniProt P06493); assay: CDK1 homogeneous time-resolved fluorescence (HTRF) kinase assay
CDK1/CCNB1, sequence (P06493 whole entry): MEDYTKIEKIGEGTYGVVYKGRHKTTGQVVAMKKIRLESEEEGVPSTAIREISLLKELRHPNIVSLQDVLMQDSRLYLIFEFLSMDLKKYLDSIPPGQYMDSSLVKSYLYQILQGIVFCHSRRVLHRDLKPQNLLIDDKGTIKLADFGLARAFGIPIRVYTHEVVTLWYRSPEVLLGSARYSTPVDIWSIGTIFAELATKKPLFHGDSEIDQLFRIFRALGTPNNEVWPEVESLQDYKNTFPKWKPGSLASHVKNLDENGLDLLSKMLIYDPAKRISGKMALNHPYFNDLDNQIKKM
CDK1/CCNB1, sequence (P14635 whole entry partner): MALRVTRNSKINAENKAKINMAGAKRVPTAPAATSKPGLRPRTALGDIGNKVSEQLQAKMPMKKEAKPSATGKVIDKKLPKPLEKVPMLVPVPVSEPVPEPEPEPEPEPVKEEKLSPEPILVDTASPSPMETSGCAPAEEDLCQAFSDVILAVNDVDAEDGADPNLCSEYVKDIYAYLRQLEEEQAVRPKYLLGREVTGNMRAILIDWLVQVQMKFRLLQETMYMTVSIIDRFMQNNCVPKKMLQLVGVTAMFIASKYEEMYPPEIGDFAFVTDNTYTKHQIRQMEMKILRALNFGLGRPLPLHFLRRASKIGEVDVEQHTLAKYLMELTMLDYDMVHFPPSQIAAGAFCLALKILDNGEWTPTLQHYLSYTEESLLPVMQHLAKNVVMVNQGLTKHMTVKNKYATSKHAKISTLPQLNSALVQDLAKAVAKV
How it was run: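 0.5 nM CDK1/CCNB1 was preincubated 20 min at 23 °C with compound in HEPES pH-unspecified buffer (MgCl2, EGTA, DTT, Tween 20), then reacted 60 min with 1 mM ATP and 50 nM ULight-4E-BP1 (Thr37/46) peptide. EDTA-stopped reactions were detected with 2 nM Eu-anti-phospho antibody; IC50 from 11-point half-log titrations.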

CDK4/CCND3 = CDK4/CCND3 (Homo sapiens, UniProt P11802); assay: CDK4 homogeneous time-resolved fluorescence (HTRF) kinase assay
CDK4/CCND3, sequence (P11802 whole entry): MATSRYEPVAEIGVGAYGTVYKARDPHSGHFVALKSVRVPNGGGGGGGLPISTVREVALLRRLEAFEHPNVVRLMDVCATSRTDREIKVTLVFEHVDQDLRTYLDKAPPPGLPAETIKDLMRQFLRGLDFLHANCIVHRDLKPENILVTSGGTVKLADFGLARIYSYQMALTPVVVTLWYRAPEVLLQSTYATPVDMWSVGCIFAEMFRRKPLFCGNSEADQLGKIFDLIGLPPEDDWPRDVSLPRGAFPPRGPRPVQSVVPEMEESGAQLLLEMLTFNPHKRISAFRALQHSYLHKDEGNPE
CDK4/CCND3, sequence (P30281 whole entry partner): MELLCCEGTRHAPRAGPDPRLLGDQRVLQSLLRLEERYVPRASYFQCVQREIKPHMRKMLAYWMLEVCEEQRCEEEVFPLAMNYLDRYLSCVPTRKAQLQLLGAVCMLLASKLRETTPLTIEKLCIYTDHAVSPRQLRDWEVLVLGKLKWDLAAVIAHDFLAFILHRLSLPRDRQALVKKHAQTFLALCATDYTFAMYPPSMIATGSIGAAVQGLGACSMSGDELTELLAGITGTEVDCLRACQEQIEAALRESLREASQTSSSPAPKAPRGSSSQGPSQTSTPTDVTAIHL
How it was run: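 TR-FRET read (665 nm, or 665/615 ratio) of 4E-BP1 Thr37/46 phosphorylation by 1.5 nM CDK4/CCND3 at 1 mM ATP, 50 nM ULight peptide, 1% DMSO. Reaction ran 60 min at 23 °C after 20 min compound–enzyme preincubation. IC50 from 11-point half-log dilutions, top 10 μM.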

CDK6/CCND1 = CDK6/CCND1 (Homo sapiens, UniProt Q00534); assay: CDK6 homogeneous time-resolved fluorescence (HTRF) kinase assay
CDK6/CCND1, sequence (Q00534 whole entry): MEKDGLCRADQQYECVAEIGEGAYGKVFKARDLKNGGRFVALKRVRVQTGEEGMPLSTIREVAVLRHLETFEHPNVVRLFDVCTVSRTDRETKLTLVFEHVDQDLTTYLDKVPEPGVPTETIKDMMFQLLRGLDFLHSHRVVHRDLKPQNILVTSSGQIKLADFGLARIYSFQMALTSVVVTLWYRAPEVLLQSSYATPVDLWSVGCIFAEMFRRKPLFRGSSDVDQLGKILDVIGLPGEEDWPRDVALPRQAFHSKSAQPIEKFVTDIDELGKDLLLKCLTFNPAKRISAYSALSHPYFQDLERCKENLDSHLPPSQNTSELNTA
CDK6/CCND1, sequence (P24385 whole entry partner): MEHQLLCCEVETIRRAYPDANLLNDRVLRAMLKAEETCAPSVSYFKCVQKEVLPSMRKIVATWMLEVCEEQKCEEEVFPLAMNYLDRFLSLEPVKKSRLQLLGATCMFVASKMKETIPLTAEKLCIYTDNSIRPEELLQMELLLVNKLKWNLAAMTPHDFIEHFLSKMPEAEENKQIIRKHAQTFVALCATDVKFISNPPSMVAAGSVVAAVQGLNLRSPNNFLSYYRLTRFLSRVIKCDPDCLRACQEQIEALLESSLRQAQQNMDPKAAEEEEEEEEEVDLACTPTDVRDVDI
How it was run: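 Assay conditions: HEPES buffer containing 10 mM MgCl2, 1 mM EGTA, 2 mM DTT, 0.01% Tween 20; 1 nM CDK6/CCND1, 50 nM peptide substrate, 1 mM ATP. Detection after 60 min reaction used 2 nM europium antibody with 340 nm excitation. Potency fitted from half-log series, 11 points.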

[1] = CDK2/CCNE, x = IC50 >250 nM, read-out: CDK2/CCNE IC50 (>250 nM column)
[2] = CDK1/CCNB, x = IC50 >250 nM, read-out: CDK1/CCNB IC50 (>250 nM column)
[3] = CDK4/CCND, x = IC50 >250 nM, read-out: CDK4/CCND IC50 (>250 nM column)
[4] = CDK6/CCND, x = IC50 >250 nM, read-out: CDK6/CCND IC50 (>250 nM column)
[5] = CDK2/CCNE, x = IC50 25-250 nM, read-out: CDK2/CCNE IC50 (25-250 nM)
[6] = 25-250 nM, CDK2/CCNE, read-out: CDK2/CCNE IC50, 25-250 nM
[7] = >250 nM, CDK1/CCNB, read-out: CDK1/CCNB IC50 >250 nM
[8] = >250 nM, CDK4/CCND, read-out: CDK4/CCND IC50, >250 nM
[9] = >250 nM, CDK6/CCND, 1 mM ATP, read-out: CDK6/CCND IC50, >250 nM
[10] = 3 nM CDK2/CCNE1, 1 mM ATP, read-out: CDK2/CCNE IC50 <25 nM
[11] = 0.5 nM CDK1/CCNB1, 1 mM ATP, read-out: CDK1/CCNB IC50 25-250 nM
[12] = 1.5 nM CDK4/CCND3, 1 mM ATP, read-out: CDK4/CCND IC50 25-250 nM
[13] = <25 nM, CDK2/CCNE, read-out: CDK2/CCNE IC50, <25 nM
[14] = 25-250 nM, CDK1/CCNB, read-out: CDK1/CCNB IC50, 25-250 nM
[15] = CDK1/CCNB, >250 nM marked x, read-out: CDK1/CCNB IC50 >250 nM
[16] = CDK4/CCND, >250 nM marked x, read-out: CDK4/CCND IC50 >250 nM
[17] = CDK6/CCND, >250 nM marked x, read-out: CDK6/CCND IC50 >250 nM
[18] = 25-250 nM, CDK4/CCND, read-out: CDK4/CCND IC50, 25-250 nM
[19] = 25-250 nM, CDK6/CCND, 1 mM ATP, read-out: CDK6/CCND IC50, 25-250 nM

SMILES: Cc1c(-c2nccc3cnc(Nc4ccc(S(=O)(=O)Nc5ncc(Cl)cn5)cc4)cc23)ccc2c1cnn2CC(C)(C)O [Ex 895, N-(5-chloropyrimidin-2-yl)-4-((5-(1-(2-hydroxy-2-methylpropyl)-4-methyl-1H-indazol-5-yl)-2,6-naphthyridin-3-yl)amino)benzenesulfonamide]
IC50 (CDK2/CCNE1; [6]): 25 to 250 nM
IC50 (CDK1/CCNB1; [7]): > 250 nM
IC50 (CDK4/CCND3; [8]): > 250 nM
IC50 (CDK6/CCND1; [9]): > 250 nM

SMILES: CS(=O)(=O)c1ccc(Nc2ncc3ccnc(C4=CCCCC4)c3n2)cc1 [Example 956, 8-(cyclohex-1-en-1-yl)-N-(4-(methylsulfonyl)phenyl)pyrido[3,4-d]pyrimidin-2-amine]
IC50 (CDK2/CCNE1; [10]): < 25 nM
IC50 (CDK1/CCNB1; [11]): 25 to 250 nM
IC50 (CDK4/CCND3; [12]): 25 to 250 nM
IC50 (CDK6/CCND1; 1 nM CDK6/CCND1, 1 mM ATP, read-out: CDK6/CCND IC50 <25 nM): < 25 nM

SMILES: COc1cccc(NS(=O)(=O)c2ccc(Nc3cc4c(-c5ccc6c(cnn6CC(C)(C)O)c5C)nccc4cn3)cc2)n1 [Ex 812, 4-((5-(1-(2-hydroxy-2-methylpropyl)-4-methyl-1H-indazol-5-yl)-2,6-naphthyridin-3-yl)amino)-N-(6-methoxypyridin-2-yl)benzenesulfonamide]
IC50 (CDK2/CCNE1; [13]): < 25 nM
IC50 (CDK1/CCNB1; [7]): > 250 nM
IC50 (CDK4/CCND3; [8]): > 250 nM
IC50 (CDK6/CCND1; [9]): > 250 nM

SMILES: Cc1c(-c2nccc3cnc(Nc4ccc(NS(=O)(=O)c5cc6ccccc6o5)cc4)cc23)ccc2c1cnn2CC(C)(C)O [Example 776, N-(4-((5-(1-(2-hydroxy-2-methylpropyl)-4-methyl-1H-indazol-5-yl)-2,6-naphthyridin-3-yl)amino)phenyl)benzofuran-2-sulfonamide]
IC50 (CDK2/CCNE1; [6]): 25 to 250 nM
IC50 (CDK1/CCNB1; [7]): > 250 nM
IC50 (CDK4/CCND3; [8]): > 250 nM
IC50 (CDK6/CCND1; [9]): > 250 nM

SMILES: Cc1ncc(S(=O)(=O)Nc2ccc(Nc3cc4c(-c5ccc6c(cnn6CC(C)(C)O)c5C)nccc4cn3)cc2)s1 [Ex 783, N-(4-((5-(1-(2-hydroxy-2-methylpropyl)-4-methyl-1H-indazol-5-yl)-2,6-naphthyridin-3-yl)amino)phenyl)-2-methylthiazole-5-sulfonamide]
IC50 (CDK2/CCNE1; [13]): < 25 nM
IC50 (CDK1/CCNB1; [7]): > 250 nM
IC50 (CDK4/CCND3; [8]): > 250 nM
IC50 (CDK6/CCND1; [9]): > 250 nM

SMILES: Cc1c(-c2nccc3cnc(Nc4ccc(S(=O)(=O)Nc5cccc(C(C)(C)O)n5)cc4)cc23)ccc2c1cnn2CC(C)(C)O [Ex 811, 4-((5-(1-(2-hydroxy-2-methylpropyl)-4-methyl-1H-indazol-5-yl)-2,6-naphthyridin-3-yl)amino)-N-(6-(2-hydroxypropan-2-yl)pyridin-2-yl)benzenesulfonamide]
IC50 (CDK2/CCNE1; [13]): < 25 nM
IC50 (CDK1/CCNB1; [14]): 25 to 250 nM
IC50 (CDK4/CCND3; [8]): > 250 nM
IC50 (CDK6/CCND1; [9]): > 250 nM

SMILES: Cn1cc(NS(=O)(=O)c2ccc(Nc3cc4c(C#Cc5cccnc5N)nccc4cn3)cc2)cn1 [Ex 450, 4-((5-((2-aminopyridin-3-yl)ethynyl)-2,6-naphthyridin-3-yl)amino)-N-(1-methyl-1H-pyrazol-4-yl)benzenesulfonamide]
IC50 (CDK2/CCNE1; [5]): 25 to 250 nM
IC50 (CDK1/CCNB1; [2]): > 250 nM
IC50 (CDK4/CCND3; [3]): > 250 nM
IC50 (CDK6/CCND1; [4]): > 250 nM

SMILES: Cc1c(-c2nccc3cnc(Nc4ccc(S(N)(=O)=O)cc4)cc23)ccc2c1cnn2CC(C)(C)O [Ex 921, 4-((5-(1-(2-hydroxy-2-methylpropyl)-4-methyl-1H-indazol-5-yl)-2,6-naphthyridin-3-yl)amino)benzenesulfonamide]
IC50 (CDK2/CCNE1; [13]): < 25 nM
IC50 (CDK1/CCNB1; [14]): 25 to 250 nM
IC50 (CDK4/CCND3; [18]): 25 to 250 nM
IC50 (CDK6/CCND1; [19]): 25 to 250 nM

SMILES: Cc1c(-c2nccc3cnc(Nc4ccc([S@](C)(=N)=O)cc4)cc23)ccc2c1cnn2CC(O)(C(F)(F)F)C(F)(F)F [Example 725, (R)-1,1,1,3,3,3-hexafluoro-2-((4-methyl-5-(7-((4-(S-methylsulfonimidoyl)phenyl)amino)-2,6-naphthyridin-1-yl)-1H-indazol-1-yl)methyl)propan-2-ol]
IC50 (CDK2/CCNE1; [13]): < 25 nM
IC50 (CDK1/CCNB1; [7]): > 250 nM
IC50 (CDK4/CCND3; [18]): 25 to 250 nM
IC50 (CDK6/CCND1; [19]): 25 to 250 nM

SMILES: Cc1c(-c2nccc3cnc(Nc4ccc(S(C)(=O)=O)cc4)nc23)ccc2c1cnn2CCO [Example 963, 2-(4-methyl-5-(2-((4-(methylsulfonyl)phenyl)amino)pyrido [3,4-d]pyrimidin-8-yl)-1H-indazol-1-yl)ethan-1-ol]
IC50 (CDK2/CCNE1; [10]): < 25 nM
IC50 (CDK1/CCNB1; [11]): 25 to 250 nM
IC50 (CDK4/CCND3; [12]): 25 to 250 nM
IC50 (CDK6/CCND1; 1 nM CDK6/CCND1, 1 mM ATP, read-out: CDK6/CCND IC50 25-250 nM): 25 to 250 nM

Results, then the compound that gave them:

IC50 (CDK2/CCNE1; [1]): > 250 nM
IC50 (CDK1/CCNB1; [2]): > 250 nM
IC50 (CDK4/CCND3; [3]): > 250 nM
IC50 (CDK6/CCND1; [4]): > 250 nM
SMILES: COc1cc(C#Cc2nccc3cnc(Nc4ccc(S(C)(=O)=O)cc4)cc23)ncn1 [Ex 568, 5-((6-methoxypyrimidin-4-yl)ethynyl)-N-(4-(methylsulfonyl)phenyl)-2,6-naphthyridin-3-amine]

IC50 (CDK2/CCNE1; [5]): 25 to 250 nM
IC50 (CDK1/CCNB1; [2]): > 250 nM
IC50 (CDK4/CCND3; [3]): > 250 nM
IC50 (CDK6/CCND1; CDK6/CCND, x = IC50 <25 nM, read-out: CDK6/CCND IC50 (<25 nM)): < 25 nM
SMILES: Cc1ccc(C#Cc2nccc3cnc(Nc4ccc(S(C)(=O)=O)cc4)cc23)c(C#N)n1 [Ex 553, 6-methyl-3-((7-((4-(methylsulfonyl)phenyl)amino)-2,6-naphthyridin-1-yl)ethynyl)picolinonitrile]

IC50 (CDK2/CCNE1; CDK2/CCNE, <25 nM, read-out: CDK2/CCNE IC50 <25 nM): < 25 nM
IC50 (CDK1/CCNB1; [15]): > 250 nM
IC50 (CDK4/CCND3; [16]): > 250 nM
IC50 (CDK6/CCND1; [17]): > 250 nM
SMILES: COc1cc(S(=N)(=O)C2COC2)ccc1Nc1cc2c(C#Cc3ccc4c(c3)NC(=O)C43CC3)nccc2cn1 (single isomer, unassigned) [Ex 323, 6'-((7-((2-methoxy-4-(oxetane-3-sulfonimidoyl)phenyl)amino)-2,6-naphthyridin-1-yl)ethynyl)spiro[cyclopropane-1,3'-indolin]-2'-one]

IC50 (CDK2/CCNE1; [6]): 25 to 250 nM
IC50 (CDK1/CCNB1; [7]): > 250 nM
IC50 (CDK4/CCND3; [8]): > 250 nM
IC50 (CDK6/CCND1; [9]): > 250 nM
SMILES: CS(=O)(=O)Nc1ccc(Nc2cc3c(C#Cc4ccc(C#N)cc4)nccc3cn2)cc1 [Ex 940, N-(4-((5-((4-cyanophenyl)ethynyl)-2,6-naphthyridin-3-yl)amino)phenyl)methanesulfonamide]

IC50 (CDK2/CCNE1; CDK2/CCNE, 25-250 nM marked x, read-out: CDK2/CCNE IC50 25-250 nM): 25 to 250 nM
IC50 (CDK1/CCNB1; [15]): > 250 nM
IC50 (CDK4/CCND3; [16]): > 250 nM
IC50 (CDK6/CCND1; [17]): > 250 nM
SMILES: CCC1(CC)C(=O)Nc2cc(C#Cc3nccc4cnc(Nc5ccc(S(=N)(=O)C6COC6)cc5OC)cc34)ccc21 (single isomer, unassigned) [Ex 317, 3,3-diethyl-6-((7-((2-methoxy-4-(oxetane-3-sulfonimidoyl)phenyl)amino)-2,6-naphthyridin-1-yl)ethynyl)indolin-2-one]

IC50 (CDK2/CCNE1; [1]): > 250 nM
IC50 (CDK1/CCNB1; [2]): > 250 nM
IC50 (CDK4/CCND3; [3]): > 250 nM
IC50 (CDK6/CCND1; [4]): > 250 nM
SMILES: CS(=O)(=O)c1ccc(Nc2cc3c(C#Cc4ccc(Cl)cn4)nccc3cn2)cc1 [Example 544, 5-((5-chloropyridin-2-yl)ethynyl)-N-(4-(methylsulfonyl)phenyl)-2,6-naphthyridin-3-amine]

IC50 (CDK2/CCNE1; [5]): 25 to 250 nM
IC50 (CDK1/CCNB1; [2]): > 250 nM
IC50 (CDK4/CCND3; [3]): > 250 nM
IC50 (CDK6/CCND1; [4]): > 250 nM
SMILES: CS(=O)(=O)c1ccc(Nc2cc3c(C#Cc4cccnc4N)nccc3cn2)c(F)c1 [Ex 418, 5-((2-aminopyridin-3-yl)ethynyl)-N-(2-fluoro-4-(methylsulfonyl)phenyl)-2,6-naphthyridin-3-amine]

IC50 (CDK2/CCNE1; [5]): 25 to 250 nM
IC50 (CDK1/CCNB1; [2]): > 250 nM
IC50 (CDK4/CCND3; [3]): > 250 nM
IC50 (CDK6/CCND1; [4]): > 250 nM
SMILES: COc1ccnc(C#Cc2nccc3cnc(Nc4ccc(S(C)(=O)=O)cc4)cc23)c1N [Ex 525, 5-((3-amino-4-methoxypyridin-2-yl)ethynyl)-N-(4-(methylsulfonyl)phenyl)-2,6-naphthyridin-3-amine]
